These molecules were tested against T1, skeletal myofibrils (Rabbit Psoas), myosin ATPase activity (assay: Skeletal Myofibril ATPase Assay). Conditions: skeletal myofibrils (Rabbit Psoas 0.25 mg/mL), PK/LDH-coupled NADH absorbance at 340 nm.
T1 construct: Rabbit Psoas Prep 11 (0.25 mg/mL)
Format: biochemical
Experimental: Overview: Myosin ATPase activity is assessed by using a coupled reaction system, in which ADP generated by the myosin ATPase function is coupled to the disappearance of NADH through the pyruvate kinase/lactate dehydrogenase (PK-LDH) system. Myosin ATPase activity produces ADP, which is used as a substrate for PK to produce pyruvate and regenerate ATP. The pyruvate is then used as a substrate by LDH to oxidize NADH to NAD+. The rate of the reaction is monitored through the time-dependent disappearance of NADH using absorbance at 340 nm. Inhibition of ATPase activity by the assayed compounds is indicated by a reduced rate of NADH loss, relative to vehicle-treated controls, over the experimental time window. To assess the selectivity of the assayed compounds for skeletal myofibrils, the compounds are counter-screened in cardiac myofibrils.
Materials: The following stock solutions and reagents were used in the Skeletal Myofibril ATPase Assay:
Stock Solutions of pCa buffer. Combine PIPES, CaCl2, and EGTA solutions with 70 mL of water. Adjust pH to 7.0 and bring final volume to 100 mL.
Buffer A & Buffer B. Buffers were stored on ice until use.
Skeletal Myofibril ATPase Assay Procedure: BSA, ATP, NADH, PEP, and DTT solutions were thawed at room temperature, then transferred to ice. Pellet-frozen myofibrils were transferred with approximately twice the required volume into a sufficiently large tube and capped. Myofibrils were thawed by rolling in a water bath for approximately 15 min at room temperature and cooled on ice. Buffers A and B were prepared by adjusting volumes as necessary for required number of wells and stored on ice. 0.5 μL of the compounds to be assayed were added into wells. 25 μL of Buffer A was dispensed into the wells, followed by 25 μL of Buffer B. The wells were measured for absorbance at 340 nm, using a kinetic protocol in which the wells are read every 1.5-2 min for 45 min. The slope of the data was approximated by subtracting the minimum absorbance value from the maximum value for each well. This was accomplished either in the SoftMax Pro software or in a spreadsheet program such as Excel. Using GraphPad Prism 8.0, the data was normalized by assigning a value of 100% to the 1% DMSO vehicle wells. Typically, a normalized 0% value was simply assigned to a (Max−Min) value of 0. The normalized data was fit to a Four Parameter Logistic sigmoidal equation, constraining the bottom to be 0 or greater. Compounds of Table 1 to 4 were tested and results of the assay appear in Table 5 herein. A=IC50 is less than or equal to 10 μM; B=IC50 is greater than 10 μM and less than 100 μM; C=IC50 is greater than 100 μM.
`O=c1ccc(-c2cnc(OCC(F)(F)F)nc2)nn1Cc1ccccc1F` [Compound 36, 2-(2-fluorobenzyl)-6-(2-(2,2,2-trifluoroethoxy)pyrimidin-5-yl)pyridazin-3(2H)-one] was tested, and the IC50 was < 10 µM. `O=c1ccc(-c2cnc(OCC(F)(F)F)nc2)nn1Cc1ccc(F)cc1` [Compound 37, 2-(4-fluorobenzyl)-6-(2-(2,2,2-trifluoroethoxy)pyrimidin-5-yl)pyridazin-3(2H)-one] was tested, and the IC50 was < 10 µM. `O=c1ccc(-c2cnc(OCC(F)(F)F)nc2)nn1Cc1cccc(F)c1F` [Compound 38, 2-(2,3-difluorobenzyl)-6-(2-(2,2,2-trifluoroethoxy)pyrimidin-5-yl)pyridazin-3(2H)-one] was tested, and the IC50 was < 10 µM. For `O=c1ccc(-c2cnc(OCC(F)(F)F)nc2)nn1Cc1ccc(F)cc1F` [Compound 39, 2-(2,4-difluorobenzyl)-6-(2-(2,2,2-trifluoroethoxy)pyrimidin-5-yl)pyridazin-3(2H)-one], the IC50 was < 10 µM. With `O=c1ccc(-c2cnc(OCC(F)(F)F)nc2)nn1Cc1cc(F)ccc1F` [Compound 40, 2-(2,5-difluorobenzyl)-6-(2-(2,2,2-trifluoroethoxy)pyrimidin-5-yl)pyridazin-3(2H)-one] the IC50 was < 10 µM. For `O=c1ccc(-c2cnc(OCC(F)(F)F)nc2)nn1Cc1c(F)cccc1F` [Compound 41, 2-(2,6-difluorobenzyl)-6-(2-(2,2,2-trifluoroethoxy)pyrimidin-5-yl)pyridazin-3(2H)-one], the IC50 was < 10 µM. `O=c1ccc(-c2cnc(OCC(F)(F)F)nc2)nn1Cc1ccc(F)c(F)c1` [Compound 42, 2-(3,4-difluorobenzyl)-6-(2-(2,2,2 trifluoroethoxy)pyrimidin-5-yl)pyridazin-3(2H)-one] was tested, and the IC50 was < 10 µM. In the case of `O=c1ccc(-c2cnc(OCC(F)(F)F)nc2)nn1Cc1cc(F)cc(F)c1` [Compound 43, 2-(3,5-difluorobenzyl)-6-(2-(2,2,2-trifluoroethoxy)pyrimidin-5-yl)pyridazin-3(2H)-one], the IC50 is reported as < 10 µM. For `O=c1ccc(-c2cnc(N3CC(F)(F)C3)nc2)nn1Cc1ccc(Cl)cc1` [Compound 44, 2-(4-chlorobenzyl)-6-(2-(3,3-difluoroazetidin-1-yl)pyrimidin-5-yl)pyridazin-3(2H)-one], the IC50 was < 10 µM. Molecule `O=C1CCCN1c1ncc(-c2ccc(=O)n(Cc3ccc(Cl)cc3)n2)cn1` [Compound 45, 2-(4-chlorobenzyl)-6-(2-(2-oxopyrrolidin-1-yl)pyrimidin-5-yl)pyridazin-3(2H)-one] has an IC50 of 10 to 100 µM. For `O=c1ccc(-c2cnc(NCCOC(F)F)nc2)nn1Cc1ccc(Cl)cc1` [Compound 46, 2-(4-chlorobenzyl)-6-(2-((2-(difluoromethoxy)ethyl)amino)pyrimidin-5-yl)pyridazin-3(2H)-one], the IC50 was < 10 µM. `CC1CCC(=O)N1c1ncc(-c2ccc(=O)n(Cc3ccc(Cl)cc3)n2)cn1` (stereo not drawn) [Compound 47, 2-(4-chlorobenzyl)-6-(2-(2-methyl-5-oxopyrrolidin-1-yl)pyrimidin-5-yl)pyridazin-3(2H)-one] was tested, and the IC50 was < 10 µM. `O=c1ccc(-c2cnc(OCC(F)(F)F)nc2)nn1Cc1ccc(CO)cc1` [Compound 48, 2-(4-(hydroxymethyl)benzyl)-6-(2-(2,2,2-trifluoroethoxy)pyrimidin-5-yl)pyridazin-3(2H)-one] was tested, and the IC50 was < 10 µM. In the case of `O=c1ccc(-c2cnc(OCC(F)(F)F)nc2)nn1Cc1ccccc1O` [Compound 49, 2-(2-hydroxybenzyl)-6-(2-(2,2,2-trifluoroethoxy)pyrimidin-5-yl)pyridazin-3(2H)-one], the IC50 is reported as < 10 µM. With `O=c1ccc(-c2cnc(OCC(F)(F)F)nc2)nn1Cc1cc(Cl)ccc1O` [Compound 50, 2-(5-chloro-2-hydroxybenzyl)-6-(2-(2,2,2-trifluoroethoxy)pyrimidin-5-yl)pyridazin-3(2H)-one] the IC50 was < 10 µM. `[2H]C([2H])(c1ccccc1)n1nc(-c2cnc(OCC(F)(F)F)nc2)ccc1=O` [Compound 52, 2-(phenylmethyl-d2)-6-(2-(2,2,2-trifluoroethoxy)pyrimidin-5-yl)pyridazin-3(2H)-one] was tested, and the IC50 was < 10 µM. For `O=c1ccc(-c2ccc(OC(F)F)nc2)nn1[C@@H](CO)c1ccc(Cl)cc1` [Compound 53, (R)-2-(1-(4-chlorophenyl)-2-hydroxyethyl)-6-(6-(difluoromethoxy)pyridin-3-yl)pyridazin-3(2H)-one], the IC50 was > 100 µM. With `O=c1ccc(-c2cnc(OCC(F)(F)F)nc2)nn1C1(c2ccccc2)CC1` [Compound 54, 2-(1-phenylcyclopropyl)-6-(2-(2,2,2-trifluoroethoxy)pyrimidin-5-yl)pyridazin-3(2H)-one] the IC50 was < 10 µM. For `O=c1ccc(-c2ccc(OCC(F)(F)F)cc2)nn1Cc1ccc(Cl)cc1` [Compound 101, 2-(4-chlorobenzyl)-6-(4-(2,2,2-trifluoroethoxy)phenyl)pyridazin-3(2H)-one], the IC50 was < 10 µM. For `O=c1ccc(-c2ccc(OCC(F)F)cc2)nn1Cc1ccc(Cl)cc1` [Compound 102, 2-(4-chlorobenzyl)-6-(4-(2,2-difluoroethoxy)phenyl)pyridazin-3(2H)-one], the IC50 was < 10 µM. With `O=c1ccc(-c2ccc(OC(F)F)cc2)nn1Cc1ccc(Cl)cc1` [Compound 103, 2-(4-chlorobenzyl)-6-(4-(difluoromethoxy)phenyl)pyridazin-3(2H)-one] the IC50 was < 10 µM. For `O=c1ccc(-c2ccc(C3CC3)cc2)nn1Cc1ccc(Cl)cc1` [Compound 104, 2-(4-chlorobenzyl)-6-(4-cyclopropylphenyl)pyridazin-3(2H)-one], the IC50 was < 10 µM. With `O=c1ccc(-c2ccc(OC(F)(F)F)cc2)nn1Cc1ccc(Cl)cc1` [Compound 105, 2-(4-chlorobenzyl)-6-(4-(trifluoromethoxy)phenyl)pyridazin-3(2H)-one] the IC50 was < 10 µM. For `COCCOc1ccc(-c2ccc(=O)n(Cc3ccc(Cl)cc3)n2)cc1` [Compound 106, 2-(4-chlorobenzyl)-6-(4-(2-methoxyethoxy)phenyl)pyridazin-3(2H)-one], the IC50 was < 10 µM. `CC(=O)Nc1ccc(-c2ccc(=O)n(Cc3ccc(Cl)cc3)n2)cc1` [Compound 107, N-(4-(1-(4-chlorobenzyl)-6-oxo-1,6-dihydropyridazin-3-yl)phenyl)acetamide] was tested, and the IC50 was < 10 µM. With `N#CCOc1ccc(-c2ccc(=O)n(Cc3ccc(Cl)cc3)n2)cc1` [Compound 108, 2-(4-(1-(4-chlorobenzyl)-6-oxo-1,6-dihydropyridazin-3-yl)phenoxy)acetonitrile] the IC50 was < 10 µM. `CC1Cc2cc(-c3ccc(=O)n(Cc4ccc(Cl)cc4)n3)ccc2O1` (stereo not drawn) [Compound 109, 2-(4-chlorobenzyl)-6-(2-methyl-2,3-dihydrobenzofuran-5-yl)pyridazin-3(2H)-one] was tested, and the IC50 was < 10 µM. For `C[C@H]1Cc2cc(-c3ccc(=O)n(Cc4ccc(Cl)cc4)n3)ccc2O1` [Compound 110, (S)-2-(4-chlorobenzyl)-6-(2-methyl-2,3-dihydrobenzofuran-5-yl)pyridazin-3(2H)-one], the IC50 was < 10 µM. With `C[C@@H]1Cc2cc(-c3ccc(=O)n(Cc4ccc(Cl)cc4)n3)ccc2O1` [Compound 111, (R)-2-(4-chlorobenzyl)-6-(2-methyl-2,3-dihydrobenzofuran-5-yl)pyridazin-3(2H)-one] the IC50 was < 10 µM. With `O=c1ccc(-c2ccc3c(c2)CCO3)nn1Cc1ccc(Cl)cc1` [Compound 112, 2-(4-chlorobenzyl)-6-(2,3-dihydrobenzofuran-5-yl)pyridazin-3(2H)-one] the IC50 was < 10 µM. `CNC(=O)c1ccc(-c2ccc(=O)n(Cc3ccc(Cl)cc3)n2)cc1` [Compound 113] showed an IC50 of 10 to 100 µM. `NC(=O)c1ccc(-c2ccc(=O)n(Cc3ccc(Cl)cc3)n2)cc1` [Compound 114, 4-(1-(4-chlorobenzyl)-6-oxo-1,6-dihydropyridazin-3-yl)benzamide] showed an IC50 of 10 to 100 µM. For `CC1(C)Cc2cc(-c3ccc(=O)n(Cc4ccc(Cl)cc4)n3)ccc2O1` [Compound 115, 2-(4-chlorobenzyl)-6-(2,2-dimethyl-2,3-dihydrobenzofuran-5-yl)pyridazin-3(2H)-one], the IC50 was > 100 µM. `NC(=O)c1ccc(Cn2nc(-c3ccc(OC(F)F)cc3)ccc2=O)cc1` [Compound 116, 4-((3-(4-(difluoromethoxy)phenyl)-6-oxopyridazin-1(6H)-yl)methyl)benzamide] was tested, and the IC50 was > 100 µM. For `O=c1ccc(-c2ccc3scnc3c2)nn1Cc1ccc(Cl)cc1` [Compound 117, 6-(benzo[d]thiazol-5-yl)-2-(4-chlorobenzyl)pyridazin-3(2H)-one], the IC50 was > 100 µM. `CN(C)S(=O)(=O)c1ccc(Cn2nc(-c3ccc(OC(F)F)cc3)ccc2=O)cc1` [Compound 118, 4-((3-(4-(difluoromethoxy)phenyl)-6-oxopyridazin-1(6H)-yl)methyl)-N,N-dimethyl-benzenesulfonamide] was tested, and the IC50 was > 100 µM.
